Test results: ChEMBL document CHEMBL1201862, “PubChem BioAssay data set” (2004)
Calls of active or inactive are those of the source.

Experiments:
[1] = target: T1, Lytic switch protein BZLF1 (Epstein-Barr virus (strain B95-8) (HHV-4) (Human herpesvirus 4), UniProt P03206); test: inhibition of BZLF1 ZTA DNA binding – biochemical, fluorescence polarization, Epstein-Barr virus, 1536-well, counter-screen for EBNA-1 inhibitor project, dose response (AID 2377); parameters: species or system human gammaherpesvirus 4;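 note: fluorescence polarization of Cy5-labelled ZRE DNA probe bound by purified Zta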
T1 sequence (P03206 whole entry): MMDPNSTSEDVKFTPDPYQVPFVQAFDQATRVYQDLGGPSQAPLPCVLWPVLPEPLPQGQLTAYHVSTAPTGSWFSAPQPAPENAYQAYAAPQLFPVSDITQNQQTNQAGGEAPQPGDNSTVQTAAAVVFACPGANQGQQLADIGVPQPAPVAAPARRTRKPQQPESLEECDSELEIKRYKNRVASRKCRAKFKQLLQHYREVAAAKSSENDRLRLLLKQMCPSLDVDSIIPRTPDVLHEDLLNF

[2] = target: T2, Epstein-Barr nuclear antigen 1 (Epstein-Barr virus (strain B95-8) (HHV-4) (Human herpesvirus 4), UniProt P03211); test: inhibition of EBV nuclear antigen 1 DNA binding – biochemical, fluorescence polarization, 1536-well, dose response (AID 2381); parameters: species or system human gammaherpesvirus 4;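 note: fluorescence polarization of a Cy5 DNA probe bound by EBNA-1 protein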
T2 sequence (P03211 whole entry): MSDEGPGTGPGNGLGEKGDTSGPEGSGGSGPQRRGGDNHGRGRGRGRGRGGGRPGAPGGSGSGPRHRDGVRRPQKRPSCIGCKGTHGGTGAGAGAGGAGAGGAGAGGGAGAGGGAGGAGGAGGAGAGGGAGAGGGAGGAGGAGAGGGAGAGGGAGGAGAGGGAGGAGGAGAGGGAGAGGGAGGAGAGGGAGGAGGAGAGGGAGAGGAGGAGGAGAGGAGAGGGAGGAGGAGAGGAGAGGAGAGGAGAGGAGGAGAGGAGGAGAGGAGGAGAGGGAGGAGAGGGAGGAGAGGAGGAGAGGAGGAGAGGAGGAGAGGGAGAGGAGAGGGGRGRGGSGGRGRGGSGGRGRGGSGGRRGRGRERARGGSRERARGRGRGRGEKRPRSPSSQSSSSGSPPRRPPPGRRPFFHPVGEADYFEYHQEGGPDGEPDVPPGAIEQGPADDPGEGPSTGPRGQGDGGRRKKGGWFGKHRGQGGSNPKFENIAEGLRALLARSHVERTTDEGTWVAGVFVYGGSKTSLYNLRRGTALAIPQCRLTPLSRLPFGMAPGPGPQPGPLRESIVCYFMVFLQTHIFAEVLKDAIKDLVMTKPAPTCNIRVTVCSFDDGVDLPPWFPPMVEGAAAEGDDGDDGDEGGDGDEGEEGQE

[3] = Trypanosoma cruzi growth suppression in host cells – NIH3T3 host cells, beta-gal luminescence, confirmation (AID 2044); type: functional, cell-based;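 note: intracellular parasites grown in NIH/3T3 mouse fibroblasts as host cells; luminescent beta-galactosidase reporter signal from transgenic T. cruzi replicating inside host cells; inhibitors lower the luminescence signal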
[4] = NIH3T3 cell viability loss – ATP luminescence, mouse fibroblasts, counter-screen, dose response (AID 2010); type: functional, cell-based;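 note: cells exposed to compound for about 90 hours before reading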
[5] = target: Induced myeloid leukemia cell differentiation protein Mcl-1 (Homo sapiens, UniProt Q07820); type: functional
Estrogen receptor beta = Estrogen receptor beta (Homo sapiens, UniProt Q92731);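 note: recombinant ER-beta bound to coactivator SRC1 peptide in presence of estradiol agonist; inhibitors block coactivator peptide binding and lower the FRET signal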
[6] = target: T3, Ubiquitin carboxyl-terminal hydrolase BAP1 (Homo sapiens, UniProt Q92560); test: inhibition of BAP1 ubiquitin hydrolase activity – biochemical, dose response (AID 714); type: functional
T3 sequence (Q92560 whole entry): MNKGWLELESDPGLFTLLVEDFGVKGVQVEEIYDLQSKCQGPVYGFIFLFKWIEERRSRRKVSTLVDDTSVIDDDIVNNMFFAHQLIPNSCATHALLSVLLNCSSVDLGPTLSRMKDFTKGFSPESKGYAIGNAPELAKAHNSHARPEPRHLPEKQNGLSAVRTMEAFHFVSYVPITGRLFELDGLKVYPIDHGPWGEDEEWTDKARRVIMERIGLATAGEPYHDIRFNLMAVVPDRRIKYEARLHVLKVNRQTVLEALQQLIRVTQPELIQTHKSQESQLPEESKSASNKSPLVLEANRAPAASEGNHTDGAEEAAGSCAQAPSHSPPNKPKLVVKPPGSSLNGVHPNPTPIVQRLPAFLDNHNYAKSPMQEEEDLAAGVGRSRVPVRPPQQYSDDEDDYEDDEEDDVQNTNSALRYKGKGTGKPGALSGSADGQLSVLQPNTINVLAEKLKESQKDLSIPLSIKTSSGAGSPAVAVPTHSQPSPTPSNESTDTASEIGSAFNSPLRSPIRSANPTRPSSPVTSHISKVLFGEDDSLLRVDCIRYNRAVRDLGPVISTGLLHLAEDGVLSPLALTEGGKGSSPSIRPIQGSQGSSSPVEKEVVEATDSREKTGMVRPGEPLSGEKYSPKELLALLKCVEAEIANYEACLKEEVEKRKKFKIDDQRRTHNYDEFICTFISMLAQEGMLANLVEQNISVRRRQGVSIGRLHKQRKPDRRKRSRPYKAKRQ

[7] = target: Peroxisome proliferator-activated receptor gamma/Nuclear receptor corepressor 2 (Homo sapiens, UniProt P37231+Q9Y618); test: Counterscreen for NR2E3 inverse agonists: TR-FRET-based biochemical high throughput dose response assay to identify inverse agonists of the interaction between peroxisome proliferator-activated receptor gamma (PPARg) and nuclear receptor co-repressor 2 (NCOR2).; type: functional
[8] = target: Photoreceptor-specific nuclear receptor (Homo sapiens, UniProt Q9Y5X4); test: ligands suppressing NR2E3 nuclear receptor activity – biochemical, TR-FRET, dose response (AID 463256); type: functional
[9] = A cytotoxicity screen of small molecule inhibitors of the PhoP region in Salmonella typhi identified in the primary screen. [Related pubchem assays: 1850, 1864, 1985 ]; type: functional
Paired box protein Pax-8 = Paired box protein Pax-8 (Homo sapiens, UniProt Q06710); test: PAX8 transcriptional activity inhibition in RMG-I – RMG-I cells, luciferase, cherry-pick, dose response (AID 687027); type: functional, cell-based;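 note: luciferase reporter driven by Pax8 target thyroperoxidase promoter measured by SteadyGlo luminescence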
[10] = viability loss in HEK293 cells – cell-based, plate reader, cherry-picked samples, cytotoxicity control, dose response (AID 743446); type: functional
[11] = target: T4, Sphingosine 1-phosphate receptor 4 (Homo sapiens, UniProt O95977); test: Fluorescence dose response cell-based high throughput screening assay for antagonists of the Sphingosine 1-Phosphate Receptor 4 (S1P4). [Related pubchem assays: 1524 (Confirmation in triplicates.), 1510 (Primary screen.)]; type: functional
T4 sequence (O95977 whole entry): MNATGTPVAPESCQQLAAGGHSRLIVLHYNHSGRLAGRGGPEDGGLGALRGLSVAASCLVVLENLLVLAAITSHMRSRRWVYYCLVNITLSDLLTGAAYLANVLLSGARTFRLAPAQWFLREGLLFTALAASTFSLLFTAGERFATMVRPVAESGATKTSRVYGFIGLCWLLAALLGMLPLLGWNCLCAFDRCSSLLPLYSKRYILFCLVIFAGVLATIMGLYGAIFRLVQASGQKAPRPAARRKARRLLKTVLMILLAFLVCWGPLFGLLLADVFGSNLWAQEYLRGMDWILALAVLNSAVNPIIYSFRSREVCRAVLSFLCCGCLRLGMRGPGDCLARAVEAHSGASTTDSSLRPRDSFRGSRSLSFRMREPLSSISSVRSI

[12] = loss of viability in HepG2 cells – cell-based, CellTiter-Glo, cherry-picked, cytotoxicity control for Shn3 inhibitor project, dose response (AID 624134); type: functional
[13] = decrease of insulin promoter-GFP reporter – imaging, high-content screening, mouse beta cells (AID 1628); type: functional; conditions: MIN6
[14] = MIN6 cell viability loss – mouse insulinoma, cytotoxicity control, dose response (AID 2122); type: functional;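 note: confirmatory high-throughput counterscreen run to flag cytotoxic compounds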
[15] = reduction of Shn3 3'UTR-driven luciferase in osteoblasts – cell-based, Clone20 osteoblasts, firefly luciferase, cherry-picked, dose response (AID 624132); type: functional;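 note: firefly luciferase luminescence from reporter carrying the Shn3 3'UTR in osteoblasts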
[16] = target: Sphingosine 1-phosphate receptor 1 (Homo sapiens, UniProt P21453); type: functional;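 note: Tango beta-arrestin reporter U2OS cells stimulated with S1P near its EC80; inhibitor potency meaning antagonism of receptor activation by the natural agonist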
[17] = blockers of bursicon-stimulated LGR2 cAMP reporter – cell-based, HEK293, CRE-luciferase reporter, cherry pick, set 2, dose response (AID 743343); type: functional;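 note: transfected cells were stimulated with diluted bursicon conditioned medium after compound addition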
[18] = A549 cell cytotoxicity, dose response, cytotoxicity control, plate reader, cherry-pick, antagonist series (AID 743412); type: functional, cell-based
[19] = non-specific 3'UTR reporter inhibition in Clone20-Shn3RL – cell-based, Renilla luciferase, cherry-picked, counter-screen for Shn3 inhibitor project, dose response (AID 624133); type: functional
[20] = toxicity toward HepG2 liver cells – cell-based, plate reader, cherry-pick, antagonist series, cytotoxicity control, dose response (AID 743416); type: functional
[21] = blockade of melanocortin 4 receptor signaling – cell-based, plate reader, cherry pick, counter-screen for LGR2 antagonist project, dose response (AID 743444); type: functional;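 note: transfected HEK 293 cells stimulated with alpha-MSH peptide; potency of inhibitors of the alpha-MSH evoked signal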
[22] = viability of HCT116 lacking mutant beta-catenin – cell-based, human colon tumor, dose response (AID 1045); type: functional;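 note: HCT116 colon tumor cells with beta catenin knocked out; cells exposed to compound for 60 hours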
[23] = viability of PTEN-deleted HCT116 cells – cell-based, HCT116 PTEN knockout, dose response (AID 1047); type: functional;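 note: HCT116 colon tumor cells with PTEN knocked out; cells exposed to compound for 60 hours before readout; potency for loss of cell viability measured by luminescence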
[24] = target: Luciferin 4-monooxygenase (Photinus pyralis, UniProt P08659); test: inhibition of purified Photinus pyralis luciferase – biochemical, luminescence, dose response (AID 1891)
[25] = Luminescence Cell-Based Dose Confirmation HTS to Identify Inhibitors of Platelet Dense Granule Release. [Related pubchem assays: 1663 (Primary HTS), 1678 (Summary of Project)]; type: functional
Cytochrome P450 2C9 = Cytochrome P450 2C9 (Homo sapiens, UniProt P11712)

Sequence of Peroxisome proliferator-activated receptor gamma/Nuclear receptor corepressor 2 (P37231 whole entry): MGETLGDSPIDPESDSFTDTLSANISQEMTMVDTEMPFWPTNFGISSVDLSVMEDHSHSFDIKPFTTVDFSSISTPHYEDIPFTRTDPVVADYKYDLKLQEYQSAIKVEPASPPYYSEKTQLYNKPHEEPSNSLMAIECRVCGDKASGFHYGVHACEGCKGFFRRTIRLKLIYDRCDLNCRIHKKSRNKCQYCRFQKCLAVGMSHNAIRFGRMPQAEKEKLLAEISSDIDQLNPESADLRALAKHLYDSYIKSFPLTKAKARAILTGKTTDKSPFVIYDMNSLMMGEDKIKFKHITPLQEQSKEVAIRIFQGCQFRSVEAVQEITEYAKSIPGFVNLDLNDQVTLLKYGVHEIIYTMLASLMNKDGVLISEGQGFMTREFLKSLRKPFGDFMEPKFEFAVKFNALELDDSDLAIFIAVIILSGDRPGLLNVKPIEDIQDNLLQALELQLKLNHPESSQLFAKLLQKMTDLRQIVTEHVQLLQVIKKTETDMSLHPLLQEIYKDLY
Sequence of Peroxisome proliferator-activated receptor gamma/Nuclear receptor corepressor 2 (Q9Y618 whole entry): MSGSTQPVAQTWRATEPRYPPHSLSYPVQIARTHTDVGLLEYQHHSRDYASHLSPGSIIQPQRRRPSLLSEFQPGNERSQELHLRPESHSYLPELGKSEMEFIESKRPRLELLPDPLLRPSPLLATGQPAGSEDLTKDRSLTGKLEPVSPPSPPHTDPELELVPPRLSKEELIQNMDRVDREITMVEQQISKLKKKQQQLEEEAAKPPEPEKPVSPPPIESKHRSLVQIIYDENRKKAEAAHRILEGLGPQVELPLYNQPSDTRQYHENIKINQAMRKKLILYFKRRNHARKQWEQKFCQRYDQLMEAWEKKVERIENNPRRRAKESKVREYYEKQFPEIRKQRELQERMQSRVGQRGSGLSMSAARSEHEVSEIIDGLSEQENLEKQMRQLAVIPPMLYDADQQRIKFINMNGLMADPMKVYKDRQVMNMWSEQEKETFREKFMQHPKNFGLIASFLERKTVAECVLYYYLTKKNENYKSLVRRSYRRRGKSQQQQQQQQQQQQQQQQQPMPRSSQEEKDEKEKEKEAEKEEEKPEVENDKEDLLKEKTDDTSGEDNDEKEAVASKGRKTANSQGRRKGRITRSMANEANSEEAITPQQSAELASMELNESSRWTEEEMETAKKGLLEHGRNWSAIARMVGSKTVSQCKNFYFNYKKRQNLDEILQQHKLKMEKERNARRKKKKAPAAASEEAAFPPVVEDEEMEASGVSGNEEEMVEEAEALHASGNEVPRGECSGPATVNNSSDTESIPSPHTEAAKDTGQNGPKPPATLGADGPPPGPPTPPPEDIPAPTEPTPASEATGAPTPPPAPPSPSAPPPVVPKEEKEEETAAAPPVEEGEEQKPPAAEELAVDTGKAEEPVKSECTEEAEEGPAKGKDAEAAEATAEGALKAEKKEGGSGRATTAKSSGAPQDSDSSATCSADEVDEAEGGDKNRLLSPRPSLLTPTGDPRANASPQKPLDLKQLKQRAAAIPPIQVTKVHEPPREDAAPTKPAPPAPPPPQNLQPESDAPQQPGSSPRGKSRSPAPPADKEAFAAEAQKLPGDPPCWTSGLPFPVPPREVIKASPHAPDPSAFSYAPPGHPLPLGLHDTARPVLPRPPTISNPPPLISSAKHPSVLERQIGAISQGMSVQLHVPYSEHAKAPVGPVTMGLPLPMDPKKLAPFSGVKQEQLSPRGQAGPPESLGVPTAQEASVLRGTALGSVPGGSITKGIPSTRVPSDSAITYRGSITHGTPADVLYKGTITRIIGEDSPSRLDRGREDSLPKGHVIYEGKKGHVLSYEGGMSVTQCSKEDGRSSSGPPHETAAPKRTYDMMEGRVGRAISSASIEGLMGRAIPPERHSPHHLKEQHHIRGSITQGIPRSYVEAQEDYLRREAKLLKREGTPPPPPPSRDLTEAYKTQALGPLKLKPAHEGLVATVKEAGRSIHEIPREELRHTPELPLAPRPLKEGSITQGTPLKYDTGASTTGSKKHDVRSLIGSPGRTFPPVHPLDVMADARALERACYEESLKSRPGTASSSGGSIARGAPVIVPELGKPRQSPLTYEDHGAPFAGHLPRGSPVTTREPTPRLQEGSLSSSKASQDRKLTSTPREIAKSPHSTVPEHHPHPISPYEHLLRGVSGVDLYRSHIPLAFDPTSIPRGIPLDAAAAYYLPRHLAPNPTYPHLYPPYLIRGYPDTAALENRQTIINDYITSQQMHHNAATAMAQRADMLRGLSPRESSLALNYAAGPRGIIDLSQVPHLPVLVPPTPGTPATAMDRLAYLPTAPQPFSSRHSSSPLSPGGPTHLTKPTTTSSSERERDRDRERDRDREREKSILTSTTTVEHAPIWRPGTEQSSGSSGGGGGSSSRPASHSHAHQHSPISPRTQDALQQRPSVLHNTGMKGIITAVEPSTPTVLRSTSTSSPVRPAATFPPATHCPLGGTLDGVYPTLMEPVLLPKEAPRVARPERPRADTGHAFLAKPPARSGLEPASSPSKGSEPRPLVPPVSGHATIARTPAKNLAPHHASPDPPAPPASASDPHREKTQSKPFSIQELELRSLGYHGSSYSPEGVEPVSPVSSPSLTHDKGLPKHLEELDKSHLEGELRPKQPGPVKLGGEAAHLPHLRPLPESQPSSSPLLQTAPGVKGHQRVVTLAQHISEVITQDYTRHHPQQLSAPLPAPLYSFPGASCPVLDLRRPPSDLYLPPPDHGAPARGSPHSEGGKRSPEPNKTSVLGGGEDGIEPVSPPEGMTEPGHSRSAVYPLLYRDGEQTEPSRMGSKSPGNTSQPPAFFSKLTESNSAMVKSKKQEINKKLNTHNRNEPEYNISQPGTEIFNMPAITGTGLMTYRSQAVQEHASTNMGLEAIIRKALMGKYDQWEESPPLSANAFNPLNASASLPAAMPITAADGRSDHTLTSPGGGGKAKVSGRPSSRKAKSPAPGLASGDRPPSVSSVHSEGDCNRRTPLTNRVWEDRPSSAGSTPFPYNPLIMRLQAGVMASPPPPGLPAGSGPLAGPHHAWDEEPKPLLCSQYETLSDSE
Sequence of Photoreceptor-specific nuclear receptor (Q9Y5X4 whole entry): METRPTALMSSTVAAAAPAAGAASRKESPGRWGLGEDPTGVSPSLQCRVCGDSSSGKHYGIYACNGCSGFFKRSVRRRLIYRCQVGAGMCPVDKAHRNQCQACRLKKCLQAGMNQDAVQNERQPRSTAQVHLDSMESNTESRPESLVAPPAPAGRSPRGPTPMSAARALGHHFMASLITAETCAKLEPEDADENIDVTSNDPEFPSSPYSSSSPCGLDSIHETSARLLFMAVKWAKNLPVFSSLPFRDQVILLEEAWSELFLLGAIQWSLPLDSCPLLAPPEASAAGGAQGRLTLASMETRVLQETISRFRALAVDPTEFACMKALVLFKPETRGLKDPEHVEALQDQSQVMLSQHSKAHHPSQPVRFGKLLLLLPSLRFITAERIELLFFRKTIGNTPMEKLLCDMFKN
Sequence of Induced myeloid leukemia cell differentiation protein Mcl-1 (Q07820 whole entry): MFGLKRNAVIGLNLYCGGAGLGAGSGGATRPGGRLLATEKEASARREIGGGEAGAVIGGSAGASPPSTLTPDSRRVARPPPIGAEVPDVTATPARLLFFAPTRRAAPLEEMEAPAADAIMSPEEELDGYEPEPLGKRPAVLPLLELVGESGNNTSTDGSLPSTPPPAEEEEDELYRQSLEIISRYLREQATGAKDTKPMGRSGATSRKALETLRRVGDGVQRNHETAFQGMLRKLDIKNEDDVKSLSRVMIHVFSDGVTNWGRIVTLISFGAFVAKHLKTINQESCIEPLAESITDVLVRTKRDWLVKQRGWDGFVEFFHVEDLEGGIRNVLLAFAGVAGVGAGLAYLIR
Sequence of Estrogen receptor beta (Q92731 whole entry): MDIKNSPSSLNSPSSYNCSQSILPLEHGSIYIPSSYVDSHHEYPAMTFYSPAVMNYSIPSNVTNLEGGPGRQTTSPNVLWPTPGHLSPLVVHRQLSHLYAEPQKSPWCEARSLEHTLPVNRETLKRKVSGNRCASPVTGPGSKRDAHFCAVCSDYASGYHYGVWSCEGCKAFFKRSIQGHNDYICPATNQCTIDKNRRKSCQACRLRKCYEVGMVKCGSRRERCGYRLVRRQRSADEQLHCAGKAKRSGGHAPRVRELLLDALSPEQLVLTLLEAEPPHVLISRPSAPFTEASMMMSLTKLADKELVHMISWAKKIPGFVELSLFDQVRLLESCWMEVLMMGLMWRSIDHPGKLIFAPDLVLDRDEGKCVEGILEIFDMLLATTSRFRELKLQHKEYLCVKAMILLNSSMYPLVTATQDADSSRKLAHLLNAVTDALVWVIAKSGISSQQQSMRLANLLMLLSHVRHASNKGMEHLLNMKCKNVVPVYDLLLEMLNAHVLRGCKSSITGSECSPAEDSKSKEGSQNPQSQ
Sequence of Sphingosine 1-phosphate receptor 1 (P21453 whole entry): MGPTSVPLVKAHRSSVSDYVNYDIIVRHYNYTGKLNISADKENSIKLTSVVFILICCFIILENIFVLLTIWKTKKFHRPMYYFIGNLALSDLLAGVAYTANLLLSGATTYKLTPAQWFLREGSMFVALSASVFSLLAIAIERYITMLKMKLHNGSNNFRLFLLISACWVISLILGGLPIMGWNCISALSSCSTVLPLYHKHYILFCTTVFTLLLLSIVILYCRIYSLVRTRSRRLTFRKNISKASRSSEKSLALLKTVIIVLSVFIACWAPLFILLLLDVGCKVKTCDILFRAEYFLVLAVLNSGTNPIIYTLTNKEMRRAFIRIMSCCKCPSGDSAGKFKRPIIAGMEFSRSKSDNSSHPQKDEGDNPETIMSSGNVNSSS

## COc1ccc(N2CC(=O)C(c3nc4ccccc4s3)=C2N)cc1
[1]
  IC50: > 111 µM (not active)
[2]
  IC50: 11.2 µM (not active)

## Cc1ccsc1C(=O)C1CCCN(Cc2cnc(N3CCCC3)s2)C1 (stereo unspecified)
cells
  EC50: 0.137 µM (active)
[3]
  EC50: < 0.1 µM (active)
[4]
  EC50: > 60 µM (not active)

## CCN(c1ccc(NC(=O)COC(=O)c2ccc(C)c(S(=O)(=O)N3CCOCC3)c2)cc1)C(C)C
[5]
  IC50: 1.67 µM (not active)

## Cc1ccc(CCNS(=O)(=O)c2c[nH]cn2)cc1
Estrogen receptor beta
  IC50: > 50 µM (not active)

## CCCCN(CC)CCCNC(=O)C1CCN(c2ncnc3c2sc2cccc(F)c23)CC1
cells
  EC50: 0.294 µM (active)
[3]
  EC50: < 0.1 µM (active)
[4]
  EC50: > 30 µM (not active)

## COCCOC(=O)c1c(NC(=O)COC(=O)Cc2cccc(OC)c2)sc(C(N)=O)c1C
[1]
  IC50: > 111 µM (not active)
[2]
  IC50: > 5.47 µM (active)

## COc1ccc(CNS(=O)(=O)c2ccc(S(=O)(=O)N3CCCCC3)cc2)cc1
[6]
  IC50: > 50 µM (not active)

## O=C(CSc1ccc(-c2cccs2)nn1)N1CCCCC1
[7]
  IC50: 8.03 µM (active)
[8]
  IC50: 2.64 µM (active)

## O=C(CSC1=NCCS1)Nc1nc2c(s1)CCCC2
[9]
  EC50: > 50 µM (active)

## COc1ccc(C(=O)Nc2ccc(NC(=O)c3cccs3)cn2)cc1
[7]
  IC50: 7.65 µM (active)
[8]
  IC50: 7.18 µM (active)

## CCN1C(=O)N/C(=C/c2cc(C)n(Cc3ccccc3)c2C)C1=O
[9]
  EC50: > 50 µM (active)

## COc1ccc(-n2ncc(Cl)c(Cl)c2=O)cc1
Paired box protein Pax-8
  AC50: 5.62 µM (active)
[10]
  AC50: 7.88 µM (active)
[11]
  IC50: 2.09 µM (active)
[12]
  AC50: 32.9 µM (active)
[13]
  IC50: 1.56 µM (active)
[14]
  IC50: 1.11 µM (active)
[15]
  AC50: 3.36 µM (active)
[16]
  IC50: 21.6 µM (not active)
[17]
  AC50: 20.2 µM (active)
[3]
  EC50: 1.59 µM (active)
[18]
  AC50: 10.8 µM (active)
[19]
  AC50: 8.07 µM (active)
[4]
  EC50: 2.03 µM (active)
[20]
  AC50: 8.23 µM (active)
[21]
  AC50: 26.5 µM (active)

## CC(=O)N(Cc1cccnc1)c1cccc(-c2nc3ccccc3s2)c1
cells
  EC50: 0.078 µM (active)
[3]
  EC50: < 0.1 µM (active)
[4]
  EC50: > 60 µM (not active)

## CCCCNC(=O)c1cnc2ccc(S(=O)(=O)Nc3ccc(OCC)cc3)cc2c1O
[6]
  IC50: > 50 µM (not active)

## O=C(Nc1ccc2ccccc2c1)Nc1ccc2snnc2c1
[22]
  EC50: 15.9 µM (active)
[1]
  IC50: > 111 µM (not active)
[3]
  EC50: 1.94 µM (active)
[23]
  EC50: 14.9 µM (active)
[2]
  IC50: 10.1 µM (not active)
[4]
  EC50: > 60 µM (not active)

## O=C(Nc1nnc(C2CCCO2)s1)c1ccc(Br)cc1 (stereo unspecified)
Estrogen receptor beta
  IC50: > 50 µM (not active)

## C(=C\c1ccco1)/c1ccc2ccccc2n1
[24]
  EC50: 4.25 µM (active)
[25]
  EC50: 15.2 µM (active)
[5]
  IC50: 9.47 µM (active)

## COc1ccc(-c2nn3c(-c4ccc(F)cc4)nnc3s2)cc1
[7]
  IC50: > 39.8 µM (not active)
[8]
  IC50: > 39.8 µM (not active)

## CCCO/C(O)=C1\C(C)=NC2=C(C(=O)CCC2)C1c1cccc(OC)c1OC (stereo unspecified)
[6]
  IC50: 33.9 µM (not active)

## COc1ccccc1NC(=O)C(=O)N/N=C/c1ccc([N+](=O)[O-])s1
[5]
  IC50: 2.56 µM (active)
[3]
  EC50: 0.858 µM (active)
[4]
  EC50: > 60 µM (not active)

## COc1cccc(/C=N/NC(=O)CO/N=C(\C)c2cccs2)c1OC
[9]
  EC50: > 50 µM (active)
Cytochrome P450 2C9
  AC50: 39.8 µM (inconclusive)
